In patent US20160235752A1, “COMPOSITIONS, METHODS OF USE, AND METHODS OF TREATMENT” (THE UNIVERSITY OF NEW ORLEANS, priority 2013, published 2016):
Values after ≈ are worked out from the molar mass of the structure shown.

What was measured:
[1] = test system: Candida albicans (ATCC no. 10231); assay: MIC determination by broth microdilution (NCCLS), visual scoring; type: cell-based; conditions: for MIC80: Candida albicans, ATCC10231, read-out: MIC80 C. albicans
Method in brief: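 NCCLS broth microdilution in RPMI 1640 with 10 mM HEPES, final compound 0.5–128 μg/mL, DMSO ≤1%. Inoculum from 0.5 McFarland stock diluted 1:50; incubated 35 °C for 48–72 h. MIC scored visually as lowest concentration giving ~80% growth reduction versus drug-free wells.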

[2] = test system: Candida glabrata (ATCC no. 48435); assay: as above; type: cell-based; conditions: for MIC80: Nakaseomyces glabratus, ATCC48435, read-out: MIC80 C. glabrata
C. albicans = assay: Colony formation on agar plates enriched with BA22; type: cell-based, Candida albicans; conditions: agar plates enriched with a range of BA22 concentrations; data not shown
Description: Considering the significant growth inhibition and lack of overall lack of cytotoxicity of many of the phenylhydrazones, we further explored potential mechanisms of action using the compound BA22 as a representative drug. We initially observed that in the presence of BA22, C. albicans formed small colonies similar to respiration deficient ‘petite’ mutants previously described for Saccharomyces. […] This phenotype somewhat resembles that of respiration deficient ‘petite’ mutants, which are unable to utilize non-fermentable carbon sources such as glycerol and ethanol^30. We therefore determined if BA22 affected the ability of C. albicans or C. glabrata to use glycerol or ethanol as carbon sources. The concentrations of BA22 required to inhibit the growth of either fungi were much lower when glycerol or ethanol is provided as a carbon source versus glucose (FIG. 2). […] Growth inhibition occurred at higher BA22 concentrations in glucose medium, possibly indicating an additional secondary mechanism.

[3] = test system: C. albicans strain SC5314; assay: Testing for respiratory deficiencies: growth in YPD, YPG, YPE; type: cell-based, Candida albicans
Procedure: (§1) FIGS. 2A and 2B illustrates BA22 activity is enhanced when Candida growth depends upon non-fermentable carbon sources. C. albicans strain SC5314 (FIG. 2A) or C. glabrata strain CS117.93 (FIG. 2B) were grown in medium with 2% glucose (YPD), 3% glycerol (YPG) or 3% ethanol (YPE) at pH 6.5, in dose response experiments with BA22. After 24 hours incubation at 30° C., growth was measured by OD600nm. Growth at each concentration of BA22 is shown as % growth relative to the minus drug (DMSO) control. Data shown is representative of two repeat experiments.
(§2) Considering the significant growth inhibition and lack of overall lack of cytotoxicity of many of the phenylhydrazones, we further explored potential mechanisms of action using the compound BA22 as a representative drug. We initially observed that in the presence of BA22, C. albicans formed small colonies similar to respiration deficient ‘petite’ mutants previously described for Saccharomyces. […] We therefore determined if BA22 affected the ability of C. albicans or C. glabrata to use glycerol or ethanol as carbon sources. […]
(§3) Respiratory deficiencies were examined using YPD (2% glucose), YPE (3% ethanol), or YPG (3% glycerol)^31. […] After 24 and 48 hours incubation at 30° C., growth was quantified by measuring OD600nm using a BioTek plate reader. Growth at each BA concentration was then expressed as % growth vs. the DMSO control of the same medium.

[4] = test system: C. glabrata strain CS117.93; assay: as above; type: cell-based, Candida glabrata
Procedure: as §1, §2, §3

[5] = test system: Vero cells (African green monkey kidney cells-ATCC no. CRL-1651); assay: In vitro mammalian cell toxicity (Promega CellTiter 96, MTT); type: cell-based; conditions: cells from the kidney origin; 24 hours; concentration not given
Procedure: Finally, in vitro mammalian cell toxicity studies were done using both mammalian kidney cells and human liver cells (Vero (kidney) cells-ATCC no. CRL-1651 and Hep G2 (liver) ATCC no. HB-8065) on all derivatives that had antifungal activity of less than 8 μg/mL. Cytotoxicity studies were performed in accordance with Promega CellTiter 96 Non-RadioactivCell Proliferation Assay (cat # G4000). The data is presented as the percent cells that remain viable, compared to the negative control, which was set to 100%. BA22, BA23 and BA73 had minimal toxicity in the kidney cells, with over 80% cells viable even at a concentration 10 times higher than the MIC (Table 7).
Cytotoxicity was determined using non-cancerous Vero cells (African green monkey kidney cells-ATCC no. CRL-1651) and Hep G2 (liver) (ATCC no. HB-8065) cells in accordance with Promega CellTiter 96 Non-RadioactivCell Proliferation Assay (cat # G4000). Cells were grown for 24 h at 37° C. and 5% CO2 in a 96-well culture plate. All compounds with MIC≦8 μg/ml were further screened in the MTT assays using both cell types. Compounds that fit these criteria were diluted in media to the testing dilution amounts: the MIC concentration (shown in respective tables; 5×MIC; 10×MIC and 100×MIC. The media used to grow cells was DMEM containing 10% FBS and 2%. Cells were incubated in the presence of the compounds for 24 hours at 37° C. and 5% CO2. Tetrazolium dye solution was added to each well and allowed to incubate for 1-4 h. Stabilization/Stop solution was added and allowed to sit at room temperature for 1 h. Formazan product was scored spectrophotometrically with an automatic plate reader set at 570 nm. 0.1% saponin was used as a positive control. 1% DMSO controls were also used since the compounds were reconstituted in DMSO.

[6] = test system: Candida albicans (ATCC no. 10231) and Candida glabrata (ATCC no 48435); assay: Antifungal activity, text statements that do not say which fungus; type: cell-based
Procedure: The antifungal activity of the 2,4,6-pyrimidinetrione analogs shown in Schemes 2-6 were evaluated in vitro using Candida albicans (ATCC no. 10231) and Candida glabrata (ATCC no 48435). All assays were done in accordance with NCCLS reference documents^29. The results of these screenings are summarized in Tables 1-9 as the minimal inhibitory concentrations that inhibited more than 80% fungal growth as compared to the positive controls in 1% DMSO and RPMI media. All MIC screens were done using a visual scoring method as opposed to spectroscopic methods of analysis, due to the physical properties of many of the compounds altering their absorbance spectra relative to the positive, negative and drug controls.
None of the compounds tested over the course of these studies were soluble in water and DMSO was used to dilute each compound tested. Master stock concentrations of all tested compounds were prepared to ensure that the maximum final concentration of DMSO was 1% or less. Subsequent 2-fold serial dilutions were made using sterile water to a final concentration of 1280-5.00 μg/ml. A final 10-fold dilution of each drug was made by aliquotting 0.1 mL of each drug dilution into 0.9 mL of fungal suspension in RPMI 1640 media with 10 mM HEPES buffer added (see methodology below), giving final concentrations tested in the range of 128-0.5 μg/ml.
Antifungal susceptibility studies and minimal inhibitory concentrations (MIC) values for Candida albicans (ATCC no. 10231) and Candida glabrata (ATCC no. 48435) were determined by the broth microdilution technique in accordance with NCCLS reference documents. Microdilution panels ranged from 0.5 to 128 μg/mL. All organisms were subcultured on Sabouraud agar and passaged to ensure purity and viability. The initiating inocula were prepared by picking 5-7 isolated colonies ˜1 mm in diameter from freshly prepared YM agar plates. […] Growth was scored visually. […]

[7] = YPG 3% glycerol or YPE 3% ethanol versus YPD 2% glucose, pH 6.5, 30° C., OD600nm
[8] = Table 7, Phenylhydrazones of 5-Acylpyrimidinetriones
[9] = Table 5, Schiff Bases of 5-acylpyrimidinetriones

Row | Compound | MIC80 [1] [µg/mL] | MIC80 [2] [µg/mL] | reduction in cell viability [5] [%] | inhibition of fungal growth (in words) [6] | MIC80 C. glabrata [2, 9] | also measured
1 | O=C1NC(=O)C(/C=N/Nc2ccc([N+](=O)[O-])cc2)C(=O)N1 [BA22, 5-{(E)-[2-(4-nitrophenyl)hydrazinylidene]methyl}pyrimidine-2,4,6-trione] | 2 (≈ 6.87 µM) | 1 (≈ 3.43 µM) | – | – | – | C. albicans colony formation (C. albicans): significantly delayed in a dose dependent manner, eventually forming small colonies; activity when Candida growth depends upon non-fermentable carbon sources ([3]; FIG. 2A, 24 hours, 30° C., % growth relative to DMSO control): enhanced; concentrations of BA22 required to inhibit the growth, glycerol or ethanol versus glucose [3, 7]: much lower; activity when Candida growth depends upon non-fermentable carbon sources ([4]; FIG. 2B, 24 hours, 30° C., % growth relative to DMSO control): enhanced; concentrations of BA22 required to inhibit the growth, glycerol or ethanol versus glucose [4, 7]: much lower
2 | C/C(=N\Nc1ccc([N+](=O)[O-])cc1)C1C(=O)NC(=O)NC1=O [BA25, 5-{(1E)-1-[2-(4-Nitrophenyl)hydrazinylidene]ethyl}pyrimidine-2,4,6-trione] | 2 (≈ 6.55 µM) | 2 (≈ 6.55 µM) | ~35 | – | – | –
3 | CC(=NNc1ccc([N+](=O)[O-])cc1)C1C(=O)NC(=O)N(c2ccccc2)C1=O (centres unmarked) [BA28] | – | – | – | greatly reduced inhibition | – | MIC80 C. albicans [1, 8]: 31.5 µg/mL (≈ 82.6 µM); MIC80 C. glabrata [2, 8]: 16 µg/mL (≈ 42 µM)
4 | C/C(=N\Nc1ccccc1)C1C(=O)N(C)C(=O)N(C)C1=O [BA78, 1,3-dimethyl-5-[(1E)-1-(2-phenylhydrazinylidene)ethyl]pyrimidine-2,4,6-trione] | 2 (≈ 6.94 µM) | 2 (≈ 6.94 µM) | ~35 | – | – | –
5 | CN1C(=O)C(C=Nc2ccccc2O)C(=O)N(C)C1=O [BA94] | – | – | ~35 | – | — (none of the 5-acyl-2,4,6-pyrimidinetriones, 5-alkylated pyrimidinetriones or the 5,5-dialkylated pyrimidinetriones showed antifungal activity through 125 μg/mL) | inhibitory activity of Candida albicans ([1]; Schiff base derivatives, Table 5): showed inhibitory activity; MIC80 C. albicans ([1]; Table 5, values marked *: compound displayed MIC with <50% inhibition): 8* μg/mL
6 | CN1C(=O)C(C=Nc2cccc(O)c2)C(=O)N(C)C1=O [BA95] | – | – | – | inactive | — (none of the 5-acyl-2,4,6-pyrimidinetriones, 5-alkylated pyrimidinetriones or the 5,5-dialkylated pyrimidinetriones showed antifungal activity through 125 μg/mL) | MIC80 C. albicans [1, 9]: — (none of the 5-acyl-2,4,6-pyrimidinetriones, 5-alkylated pyrimidinetriones or the 5,5-dialkylated pyrimidinetriones showed antifungal activity through 125 μg/mL)
7 | O=C1NC(=O)C(C=Nc2cccc(O)c2)C(=O)N1 [BA96] | – | – | – | inactive | — (none of the 5-acyl-2,4,6-pyrimidinetriones, 5-alkylated pyrimidinetriones or the 5,5-dialkylated pyrimidinetriones showed antifungal activity through 125 μg/mL) | MIC80 C. albicans [1, 9]: — (none of the 5-acyl-2,4,6-pyrimidinetriones, 5-alkylated pyrimidinetriones or the 5,5-dialkylated pyrimidinetriones showed antifungal activity through 125 μg/mL)
